Experimental data: ChEMBL document CHEMBL1201862, “PubChem BioAssay data set” (2004)
Active and inactive are the calls of the source.

What was measured:
[1] = viability loss in A549 lung cancer cells – cell-based, CellTiter-Glo luminescence, dry powder, set 3, cytotoxicity control, dose response (AID 743146); format: functional
[2] = HEK293T viability loss – cell-based, ATP luminescence, dry powder, Set6, cytotoxicity control, dose response (AID 743142); format: functional; details: HEK293
[3] = biological target: Protein disulfide-isomerase (Homo sapiens, UniProt P07237); experiment: inhibition of PDI-mediated insulin reduction – biochemical, turbidity, dry powder samples, set 2, confirmation (AID 652146)
[4] = DRD fibroblast viability loss – cell-based, non-viral oncogenic, luminescence, dose response (AID 1934); format: functional; details: Homo sapiens
BJ [5] = experiment: BJ-TERT fibroblast viability loss – cell-based, RAS-independent, luminescence, dose response (AID 1933); format: functional; details: Homo sapiens
[6] = microbe, parasite or virus in culture; format: functional; details: Mycobacterium tuberculosis
[7] = viability loss in HeLa cells – cytotoxicity control for MgcRacGAP inhibitor project, dose response (AID 624300); format: functional
[8] = system: Streptococcus sp. 'group A'; experiment: Streptococcus pyogenes SK(-)GAS viability under kanamycin – luminescence, BacTiterGlo, confirmation, counter-screen for streptokinase expression inhibitor project, dose response (AID 1900); format: functional, organism-based
BJ [9] = experiment: cells; format: functional, cell-based; details: Homo sapiens
HEK293 [10] = experiment: cells; details: Homo sapiens
[11] = NIH-3T3 fibroblast cytotoxicity, dose response, cytotoxicity control, cell-based, fluorescence, Alamar Blue, secondary assay (AID 2327); format: functional;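 also: NIH-3T3 mouse fibroblasts cultured with fluconazole at 8 µg/mL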
SN12K1 = experiment: cells; format: functional; details: Homo sapiens
[12] = HepG2 cell cytotoxicity, dose response, cytotoxicity control for non-replicating M. tuberculosis project (AID 489018); format: functional; details: Mycobacterium tuberculosis
Streptococcus = experiment: GAS UMAA2166 growth inhibition – luminescence, BacTiterGlo, counter-screen for streptokinase expression inhibitor project, dose response (AID 1915); format: functional, organism-based;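 also: potency for reduction of bacterial viability or growth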
[13] = biological target: SWI/SNF-related matrix-associated actin-dependent regulator of chromatin subfamily A member 2 (Homo sapiens, UniProt P51531); experiment: Luminescence-based cell-based high throughput dose response assay to identify activators of the function of SWI/SNF related, matrix associated, actin dependent regulator of chromatin, subfamily a, member 2 (SMARCA2, BRM).; format: functional
P388 = experiment: cells; format: functional; details: Mus musculus
[14] = biological target: Induced myeloid leukemia cell differentiation protein Mcl-1 (Homo sapiens, UniProt Q07820); format: functional
[15] = biological target: T1, DNA repair protein RAD52 homolog (Homo sapiens, UniProt P43351); format: functional, biochemical
T1 sequence (P43351 whole entry): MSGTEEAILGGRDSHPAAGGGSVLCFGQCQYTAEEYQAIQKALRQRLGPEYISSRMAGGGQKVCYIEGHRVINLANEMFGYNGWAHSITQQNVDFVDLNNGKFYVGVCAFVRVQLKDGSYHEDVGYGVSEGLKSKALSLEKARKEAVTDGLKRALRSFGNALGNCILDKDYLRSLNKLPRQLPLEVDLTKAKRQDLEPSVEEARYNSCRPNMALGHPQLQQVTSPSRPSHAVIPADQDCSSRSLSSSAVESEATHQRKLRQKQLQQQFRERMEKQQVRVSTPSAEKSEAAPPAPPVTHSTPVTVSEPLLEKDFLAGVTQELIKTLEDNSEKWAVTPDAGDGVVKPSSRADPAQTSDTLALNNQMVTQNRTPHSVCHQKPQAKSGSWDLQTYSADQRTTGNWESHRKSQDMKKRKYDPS

[16] = fluconazole-exposed Candida albicans growth modulators – fluorescence, retest, confirmation (AID 2467); format: functional, cell-based
[17] = biological target: Dual specificity tyrosine-phosphorylation-regulated kinase 1A (Rattus norvegicus, UniProt Q63470); format: biochemical, Homo sapiens
HEK293 [18] = experiment: cells; details: Homo sapiens; remark: listed apart in the source
Streptokinase A = biological target: T2, Streptokinase A (Streptococcus pyogenes serotype M1, UniProt P10520); experiment: viability-normalized secreted streptokinase activity reduction – plasminogen activation absorbance, OD405, dose response (AID 1914); format: functional, Streptococcus pyogenes M1 GAS;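 also: secreted streptokinase activity via plasminogen activation per viability signal from cell pellet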
T2 sequence (P10520 whole entry): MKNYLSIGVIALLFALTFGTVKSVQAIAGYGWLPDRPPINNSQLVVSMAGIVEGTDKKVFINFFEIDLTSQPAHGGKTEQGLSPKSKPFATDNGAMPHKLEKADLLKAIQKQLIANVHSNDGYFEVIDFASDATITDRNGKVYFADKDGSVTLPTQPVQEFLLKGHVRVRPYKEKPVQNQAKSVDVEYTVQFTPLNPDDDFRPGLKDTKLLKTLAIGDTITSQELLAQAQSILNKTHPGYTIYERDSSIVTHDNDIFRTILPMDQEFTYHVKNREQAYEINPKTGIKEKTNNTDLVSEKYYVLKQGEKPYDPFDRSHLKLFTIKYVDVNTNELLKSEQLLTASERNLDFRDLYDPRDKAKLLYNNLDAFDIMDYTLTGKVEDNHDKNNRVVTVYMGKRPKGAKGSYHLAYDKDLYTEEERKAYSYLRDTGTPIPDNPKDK

BJ [19] = experiment: BJ-TERT-LT-ST fibroblast viability loss – cell-based, RAS-independent, luminescence, dose response (AID 1935); format: functional; details: Homo sapiens;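 also: BJ fibroblasts immortalized with TERT plus LT and ST oncogenes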
INS1 = experiment: INS-1E survival protection against cytokine death – cell-based, luminescence, retest, dose response (AID 449756); format: functional; details: Rattus norvegicus;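 also: cell death triggered by IL-1 beta plus TNF-alpha plus IFN-gamma mixture; protective hits raise ATP signal compared with cytokine alone wells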
[20] = Counterscreen for activators of the function of SWI/SNF related, matrix associated, actin dependent regulator of chromatin, subfamily a, member 2 (SMARCA2, BRM): Luminescence-based cell-based high throughput dose response assay to identify non-selective compounds using the VP16 reporter assay.; format: functional
[21] = Vero E6 cell cytotoxicity, dose response, cytotoxicity control for non-replicating M. tuberculosis project, secondary assay (AID 492998); format: functional, VeroE6; details: Vero C1008
[22] = biological target: T3, Rac GTPase-activating protein 1 (Homo sapiens, UniProt Q9H0H5); experiment: blockers of MgcRacGAP-driven Rac1 GTP hydrolysis – biochemical, ADP Hunter fluorescence, primary and confirmatory, confirmation (AID 624330); format: functional
T3 sequence (Q9H0H5 whole entry): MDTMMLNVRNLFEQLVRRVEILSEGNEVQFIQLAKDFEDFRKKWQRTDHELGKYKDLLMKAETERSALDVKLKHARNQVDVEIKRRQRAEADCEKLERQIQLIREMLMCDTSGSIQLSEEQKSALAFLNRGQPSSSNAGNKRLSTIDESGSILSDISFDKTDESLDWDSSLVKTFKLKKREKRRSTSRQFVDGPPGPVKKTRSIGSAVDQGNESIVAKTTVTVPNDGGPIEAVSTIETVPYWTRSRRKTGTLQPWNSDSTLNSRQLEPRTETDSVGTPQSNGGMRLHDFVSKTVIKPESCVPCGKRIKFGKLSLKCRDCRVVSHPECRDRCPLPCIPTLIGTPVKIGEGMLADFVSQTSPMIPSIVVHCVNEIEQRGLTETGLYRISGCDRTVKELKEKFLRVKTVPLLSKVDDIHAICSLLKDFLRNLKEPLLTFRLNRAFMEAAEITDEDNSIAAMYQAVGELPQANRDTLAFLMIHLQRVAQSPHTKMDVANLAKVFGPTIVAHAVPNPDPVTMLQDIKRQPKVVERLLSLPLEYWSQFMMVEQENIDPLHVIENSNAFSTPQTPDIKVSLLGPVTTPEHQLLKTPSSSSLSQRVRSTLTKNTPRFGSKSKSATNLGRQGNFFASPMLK

P388/ADR = experiment: cells; format: functional; details: Mus musculus
[23] = biological target: T4, Heat shock factor protein 1 (Mus musculus, UniProt P38532); experiment: enhancement of HSF1-driven luciferase signal – cell-based, NIH3T3, luminescence, dose retest, confirmation (AID 435004); format: functional;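 also: stress induced by proteasome inhibitor MG132 added 30 min after compound; luciferase reporter driven by HSF1 response element in NIH3T3 cells; actives raise luminescence as potentiators of the MG132 stress response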
T4 sequence (P38532 whole entry): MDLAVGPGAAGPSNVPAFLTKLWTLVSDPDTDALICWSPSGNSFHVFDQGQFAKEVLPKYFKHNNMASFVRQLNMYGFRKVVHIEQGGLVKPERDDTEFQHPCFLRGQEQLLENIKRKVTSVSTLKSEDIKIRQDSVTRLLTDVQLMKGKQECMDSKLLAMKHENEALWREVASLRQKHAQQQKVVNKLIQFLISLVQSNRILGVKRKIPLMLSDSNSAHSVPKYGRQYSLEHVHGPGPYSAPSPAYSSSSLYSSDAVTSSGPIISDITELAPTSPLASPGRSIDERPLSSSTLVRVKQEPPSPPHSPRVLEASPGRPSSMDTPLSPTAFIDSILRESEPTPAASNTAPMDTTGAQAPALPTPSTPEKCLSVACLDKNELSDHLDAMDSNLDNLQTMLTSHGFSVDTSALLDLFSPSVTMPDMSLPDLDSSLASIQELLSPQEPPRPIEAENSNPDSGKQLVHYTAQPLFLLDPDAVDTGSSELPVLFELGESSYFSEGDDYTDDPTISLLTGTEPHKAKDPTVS

Melanocortin receptor 4 = Melanocortin receptor 4 (Homo sapiens, UniProt P32245); format: functional, cell-based;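 also: Cell-based assay with luminescence read-out, confirmatory dose-response testing for agonist activity of biased ligands at MC4R; human U2OS cells with tagged receptor and beta-arrestin; potency of agonists that increase receptor coupling to beta-arrestin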
cells = format: functional
[24] = THP-1 cell cytotoxicity, dose response, cytotoxicity control for non-replicating M. tuberculosis project (AID 489025); format: functional
[25] = biological target: Endoplasmic reticulum aminopeptidase 1 (Homo sapiens, UniProt Q9NZ08); experiment: inhibition of human ERAP1 enzyme activity – biochemical, cherry-pick, set 2, plate reader, dose response (AID 743314)
[26] = rescue of ΔF508 CFTR function, airway epithelium – human bronchial epithelial cells, plate reader, cherry-pick, two tests, dose response (AID 743267); format: functional, cell-based
[27] = viability loss in THP-1 monocytes – THP-1 cells, cytotoxicity control for Vif-APOBEC3G degradation inhibitor project, dose response (AID 1117359); format: functional; details: THP-1
[28] = activation of miR-122 Renilla sensor silencing – cell-based, Huh7 psiCHECK-miR122, Renilla luciferase, cherry-picked, dose response (AID 651956); format: functional;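 also: huh7 hepatoma cells stably carrying a psiCHECK-2 miR-122 sensor plasmid; renilla luciferase signal reporting endogenous miR-122 activity after 48 h compound exposure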
[29] = general mammalian cell viability loss – inhibitor set, cherry-pick, set 2, cytotoxicity control for miR-122 modulator project, dose response (AID 720697); format: functional, cell-based
[30] = general mammalian cell viability loss – activator set, cherry-pick, cytotoxicity control for miR-122 modulator project, dose response (AID 720690); format: functional, cell-based;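 also: HEK293T human cells scored for general mammalian cytotoxicity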

SWI/SNF-related matrix-associated actin-dependent regulator of chromatin subfamily A member 2, sequence (P51531 whole entry): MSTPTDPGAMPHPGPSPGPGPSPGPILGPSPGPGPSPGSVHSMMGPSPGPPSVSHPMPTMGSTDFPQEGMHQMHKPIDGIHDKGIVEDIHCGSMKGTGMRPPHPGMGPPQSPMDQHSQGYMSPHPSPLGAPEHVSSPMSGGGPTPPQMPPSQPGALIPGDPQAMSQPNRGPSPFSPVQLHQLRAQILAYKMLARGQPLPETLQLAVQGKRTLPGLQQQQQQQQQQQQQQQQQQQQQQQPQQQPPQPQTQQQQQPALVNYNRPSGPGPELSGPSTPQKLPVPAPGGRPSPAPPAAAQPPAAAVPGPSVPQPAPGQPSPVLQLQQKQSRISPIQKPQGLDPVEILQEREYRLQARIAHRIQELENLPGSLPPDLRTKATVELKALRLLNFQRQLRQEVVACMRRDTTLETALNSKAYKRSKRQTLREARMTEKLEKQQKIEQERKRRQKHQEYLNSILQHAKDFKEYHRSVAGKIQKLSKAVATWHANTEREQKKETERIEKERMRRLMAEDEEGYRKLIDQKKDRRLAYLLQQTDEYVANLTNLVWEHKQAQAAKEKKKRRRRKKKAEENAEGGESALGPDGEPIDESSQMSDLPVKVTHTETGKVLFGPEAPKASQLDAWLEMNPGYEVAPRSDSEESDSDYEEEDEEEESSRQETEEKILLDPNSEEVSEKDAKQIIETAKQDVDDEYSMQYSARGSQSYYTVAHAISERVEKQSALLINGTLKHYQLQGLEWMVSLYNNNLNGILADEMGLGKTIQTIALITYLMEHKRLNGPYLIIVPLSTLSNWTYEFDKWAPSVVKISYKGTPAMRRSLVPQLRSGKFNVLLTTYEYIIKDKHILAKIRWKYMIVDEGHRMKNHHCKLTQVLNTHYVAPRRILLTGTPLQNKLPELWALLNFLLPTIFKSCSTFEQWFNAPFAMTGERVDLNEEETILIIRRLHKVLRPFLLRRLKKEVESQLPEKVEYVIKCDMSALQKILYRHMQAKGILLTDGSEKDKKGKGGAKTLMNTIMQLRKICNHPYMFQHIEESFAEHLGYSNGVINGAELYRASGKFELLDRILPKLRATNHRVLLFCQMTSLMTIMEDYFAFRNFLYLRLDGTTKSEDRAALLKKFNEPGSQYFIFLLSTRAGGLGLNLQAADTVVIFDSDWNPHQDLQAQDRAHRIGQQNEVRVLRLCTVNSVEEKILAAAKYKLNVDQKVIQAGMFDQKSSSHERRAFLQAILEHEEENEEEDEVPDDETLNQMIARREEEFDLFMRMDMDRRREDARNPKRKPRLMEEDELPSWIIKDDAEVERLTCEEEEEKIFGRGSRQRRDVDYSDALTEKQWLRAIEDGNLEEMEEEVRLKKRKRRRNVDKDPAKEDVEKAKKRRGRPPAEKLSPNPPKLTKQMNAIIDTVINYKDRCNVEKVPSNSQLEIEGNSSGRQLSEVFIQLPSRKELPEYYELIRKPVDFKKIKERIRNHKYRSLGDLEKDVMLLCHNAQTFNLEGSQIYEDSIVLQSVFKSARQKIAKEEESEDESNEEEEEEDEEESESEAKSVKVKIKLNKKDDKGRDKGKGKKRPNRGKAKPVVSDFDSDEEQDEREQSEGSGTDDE
Induced myeloid leukemia cell differentiation protein Mcl-1, sequence (Q07820 whole entry): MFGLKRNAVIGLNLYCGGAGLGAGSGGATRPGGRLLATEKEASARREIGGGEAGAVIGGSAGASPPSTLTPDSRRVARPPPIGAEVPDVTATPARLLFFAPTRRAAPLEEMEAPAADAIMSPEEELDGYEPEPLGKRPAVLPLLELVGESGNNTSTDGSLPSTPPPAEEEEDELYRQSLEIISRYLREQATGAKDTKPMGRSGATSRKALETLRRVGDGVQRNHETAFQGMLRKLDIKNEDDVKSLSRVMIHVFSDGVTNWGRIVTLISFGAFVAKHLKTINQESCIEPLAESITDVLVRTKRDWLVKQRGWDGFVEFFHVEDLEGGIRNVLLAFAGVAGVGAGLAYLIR
Endoplasmic reticulum aminopeptidase 1, sequence (Q9NZ08 whole entry): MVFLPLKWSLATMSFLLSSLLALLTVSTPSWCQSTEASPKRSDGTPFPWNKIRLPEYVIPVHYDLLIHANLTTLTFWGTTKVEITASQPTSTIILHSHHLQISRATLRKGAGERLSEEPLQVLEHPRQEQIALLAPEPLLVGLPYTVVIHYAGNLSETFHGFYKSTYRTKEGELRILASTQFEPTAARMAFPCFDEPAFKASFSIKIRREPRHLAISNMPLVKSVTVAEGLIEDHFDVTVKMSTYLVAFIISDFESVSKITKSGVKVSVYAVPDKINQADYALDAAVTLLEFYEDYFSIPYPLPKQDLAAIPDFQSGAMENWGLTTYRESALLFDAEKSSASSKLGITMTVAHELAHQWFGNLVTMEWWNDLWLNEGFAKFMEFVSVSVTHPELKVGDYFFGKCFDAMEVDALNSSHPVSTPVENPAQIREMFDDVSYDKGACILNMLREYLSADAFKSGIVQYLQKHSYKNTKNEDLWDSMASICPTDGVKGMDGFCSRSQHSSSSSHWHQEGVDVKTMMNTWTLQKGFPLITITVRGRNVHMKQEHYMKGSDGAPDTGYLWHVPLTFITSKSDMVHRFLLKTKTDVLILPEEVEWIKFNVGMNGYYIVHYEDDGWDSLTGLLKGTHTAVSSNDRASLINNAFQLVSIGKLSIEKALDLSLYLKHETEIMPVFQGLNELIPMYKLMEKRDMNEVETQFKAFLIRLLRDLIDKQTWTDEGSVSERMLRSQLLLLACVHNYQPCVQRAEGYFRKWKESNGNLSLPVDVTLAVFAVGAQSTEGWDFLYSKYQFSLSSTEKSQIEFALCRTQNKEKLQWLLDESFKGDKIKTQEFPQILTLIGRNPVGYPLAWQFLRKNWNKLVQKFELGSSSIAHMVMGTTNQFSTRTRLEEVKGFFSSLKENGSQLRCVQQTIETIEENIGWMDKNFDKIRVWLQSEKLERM
Protein disulfide-isomerase, sequence (P07237 whole entry): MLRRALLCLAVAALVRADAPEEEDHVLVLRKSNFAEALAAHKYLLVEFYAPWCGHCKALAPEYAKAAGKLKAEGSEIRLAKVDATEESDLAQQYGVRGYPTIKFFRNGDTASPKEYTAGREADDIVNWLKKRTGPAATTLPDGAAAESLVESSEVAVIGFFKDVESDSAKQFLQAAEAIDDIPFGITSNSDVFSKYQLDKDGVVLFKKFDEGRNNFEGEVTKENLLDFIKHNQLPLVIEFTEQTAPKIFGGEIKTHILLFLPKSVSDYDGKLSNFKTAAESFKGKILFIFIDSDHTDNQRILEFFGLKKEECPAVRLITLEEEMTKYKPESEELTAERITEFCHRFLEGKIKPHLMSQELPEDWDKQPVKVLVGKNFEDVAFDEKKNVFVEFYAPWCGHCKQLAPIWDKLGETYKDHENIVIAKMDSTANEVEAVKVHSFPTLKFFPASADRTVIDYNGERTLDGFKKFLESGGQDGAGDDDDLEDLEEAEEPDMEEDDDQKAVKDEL
Melanocortin receptor 4, sequence (P32245 whole entry): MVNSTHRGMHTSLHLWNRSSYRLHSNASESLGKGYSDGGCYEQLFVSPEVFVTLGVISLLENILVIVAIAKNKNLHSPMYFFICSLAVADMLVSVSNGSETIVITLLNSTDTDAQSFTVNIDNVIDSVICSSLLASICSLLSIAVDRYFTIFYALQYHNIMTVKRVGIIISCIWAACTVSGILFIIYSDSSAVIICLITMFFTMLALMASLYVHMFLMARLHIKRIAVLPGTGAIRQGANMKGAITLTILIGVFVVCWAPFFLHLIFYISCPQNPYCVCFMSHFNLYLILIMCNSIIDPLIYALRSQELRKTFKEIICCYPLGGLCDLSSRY

O=C(CCNC(=O)c1cccc(Cl)c1)N[C@@H]1CCCc2ccccc21
AC50 [1]: > 52 µM (inactive)
AC50 [2]: 9.96 µM (active)

CCOC(=O)C1(CCOC)CCN(Cc2ccc(O)c(Cl)c2)CC1
AC50 [3]: > 30 µM (inactive)

COc1ccc2[nH]c3c(C)c4ccncc4c(C)c3c2c1
EC50 [4]: 2.51 µM (active)
EC50 (BJ [5]): 3.65 µM (inconclusive)
CC50 [6]: 0.838 µM (active)
CC50 [7]: 31.2 µM (active)
EC50 [8]: 2.52 µM (active)
EC50 (BJ [9]): 9.28 µM (inconclusive)
EC50 (HEK293 [10]): > 59.7 µM (inactive)
EC50 [11]: 4.36 µM (inconclusive)
GI50 (SN12K1): 0.245 µM (active)
CC50 [12]: 8.79 µM (active)
EC50 (Streptococcus): 8.86 µM (active)
EC50 [13]: > 3.38 µM (active)
GI50 (P388): 0.239 µM (active)
IC50 [14]: > 54 µM (active)
AC50 [15]: < 11.1 µM (active)
EC50 [16]: 0.698 µM (active)
AC50 [17]: 2.86 µM (active)
EC50 (HEK293 [18]): > 59.7 µM (inactive)
EC50 (Streptokinase A): > 150 µM (not active)
EC50 (BJ [19]): 4.95 µM (inconclusive)
AC50 (INS1): 1.93 µM (active)
EC50 [20]: > 91.3 µM (inactive)
CC50 [21]: 0.93 µM (active)
IC50 [22]: 28.8 µM (active)
GI50 (P388/ADR): 0.439 µM (active)
EC50 [23]: > 260 µM (inconclusive)
EC50 (Melanocortin receptor 4): > 89.3 µM (inactive)
IC50 (cells): 0.37 µM (active)
CC50 [24]: 2.94 µM (active)

CC1CCN(Cc2cc(=O)oc3cc(O)c(Cl)cc23)CC1
AC50 [25]: 6.33 µM (active)

C=CC/N=c1\scc(C)n1/N=C/c1ccc(O)c(O)c1
AC50 [26]: 50 µM (active)
IC50 [22]: 17.4 µM (active)
CC50 [27]: 19.8 µM (active)

C[C@H](CO)N1C[C@H](C)[C@H](CN(C)CC2CCCCC2)Oc2ccc(NC(=O)Nc3ccc(C(F)(F)F)cc3)cc2C1=O
AC50 [28]: 31.5 µM (active)
AC50 [29]: 15.1 µM (active)
AC50 [30]: 17.1 µM (active)
